Structures can show the parent of a compound that is named as a salt.

In the assay the target is T1, human V1a receptor (Homo sapiens, UniProt P37288).
T1 construct: expressed in transfected cells; host or cells: HEK293 cells, transiently transfected; cell membranes
T1 sequence (P37288 whole entry): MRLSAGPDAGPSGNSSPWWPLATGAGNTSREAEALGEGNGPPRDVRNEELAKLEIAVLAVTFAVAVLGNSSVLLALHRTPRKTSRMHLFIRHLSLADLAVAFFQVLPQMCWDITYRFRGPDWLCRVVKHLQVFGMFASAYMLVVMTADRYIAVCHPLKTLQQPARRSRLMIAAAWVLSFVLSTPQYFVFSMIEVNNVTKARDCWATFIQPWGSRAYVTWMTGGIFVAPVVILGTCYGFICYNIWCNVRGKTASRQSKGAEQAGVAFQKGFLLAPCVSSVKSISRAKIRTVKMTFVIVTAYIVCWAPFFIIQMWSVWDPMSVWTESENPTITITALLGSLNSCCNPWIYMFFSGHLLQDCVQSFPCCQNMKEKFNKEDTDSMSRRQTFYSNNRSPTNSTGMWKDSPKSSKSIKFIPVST
The assay is described as follows: human V1a receptor binding (3H-Vasopressin SPA, HEK293 membranes). The note with it: displacement of 4 nM 3H-Vasopressin, membranes of HEK293 cells transiently transfected with human V1a receptor; Ki from IC50 by Cheng-Prussoff. In outline: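 Transiently transfected HEK293 membranes on yttrium silicate SPA beads in Tris binding buffer (120 mM NaCl, 5 mM KCl, 2 mM CaCl2, 10 mM MgCl2). 3H-vasopressin added as 4 nM working solution; excess cold vasopressin set non-specific binding. 1 h at room temperature, then counting; Ki from fitted IC50 via Cheng-Prusoff.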
`O=C(Cn1cc(C(=O)N2CCC3(CC2)OCc2ccccc23)c2ccc(Cl)cc21)c1ccccc1F` [Example 224, 2-[6-Chloro-3-(1′H,3H-spiro[2-benzofuran-1,4′-piperidin]-1′-ylcarbonyl)-1H-indol-1-yl]-1-(2-fluorophenyl)ethanone] yielded a Ki of 1.3 nM.
The same measure for `Cc1c(C(=O)N2CCC3(CC2)OC(=O)c2c(F)cccc23)c2ccccc2n1Cc1ccccc1` [Example 11, 1′-[(1-benzyl-2-methyl-1H-indol-3-yl)carbonyl]-4-fluoro-3H-spiro[2-benzofuran-1,4′-piperidin]-3-one]: 11.2 nM; for `O=C(c1cn(CC2CN(Cc3ccccc3)CCO2)c2cc(Cl)ccc12)N1CCC2(CC1)OCc1ccccc12` (stereo not drawn) [Example 232, 1′-({1-[(4-Benzylmorpholin-2-yl)methyl]-6-chloro-1H-indol-3-yl}carbonyl)-3H-spiro[2-benzofuran-1,4′-piperidine]]: 5 nM.
In the case of `CCN(CC)C(=O)Cn1cc(C(=O)N2CCC3(CC2)OC(=O)c2ccccc23)c2ccccc21` [Example 203, N,N-Diethyl-2-{3-[(3-oxo-1′H,3H-spiro[2-benzofuran-1,4′-piperidin]-1′-yl)carbonyl]-1H-indol-1-yl}acetamide], the Ki amounted to 11.7 nM. This Ki is about 2.3-fold higher than that of the molecule before.
Next, `O=C(c1cn(Cc2cccc(F)c2)c2cc(Cl)ccc12)N1CCC2(CC1)CNc1ccccc12` [Example 94]: 4.1 nM.
In turn, `O=C1OC2(CCN(C(=O)c3cn(CCC4CCOCC4)c4cc(Cl)ccc34)CC2)c2ccc(F)cc21` [Example 195, 1′-({6-Chloro-1-[2-(tetrahydro-2H-pyran-4-yl)ethyl]-1H-indol-3-yl}carbonyl)-5-fluoro-3H-spiro[2-benzofuran-1,4′-piperidin]-3-one hydrochloride] came in with a Ki of 2.1 nM.

The Ki is a measure of affinity in units of concentration, obtained from inhibition or displacement. High values mean weaker binding, low ones tighter binding.

Values taken from US7332501B2, “Indol-3-yl-carbonyl-spiro-piperidine derivatives as V1a receptor antagonists” (Hoffmann-La Roche Inc., priority 2005, dated 2008).
